Tests used:
Conditions in all cases: 72 h
[1] = system: Caco-2; experiment: cell viability relative to DMSO; higher = less toxic
[2] = system: Calu-3; experiment: as above
[3] = system: Vero E6; experiment: as above
[4] = system: U2OS; experiment: as above
[5] = system: Caco-2; experiment: drug sensitivity score (DSS) for viability; higher = more toxic; extreme values may be limits of the assay
[6] = system: Calu-3; experiment: as above
[7] = system: Vero E6; experiment: as above
[8] = system: U2OS; experiment: as above
[9] = system: Caco-2; experiment: relative viability EC50 (midpoint between 100% and the lowest measured viability); higher = less toxic
[10] = system: Calu-3; experiment: as above
[11] = system: Vero E6; experiment: as above
[12] = system: U2OS; experiment: as above
[13] = system: HepG2; experiment: cell viability relative to DMSO; higher = less toxic
[14] = system: HepG2; experiment: drug sensitivity score (DSS) for viability; higher = more toxic; extreme values may be limits of the assay
[15] = system: HepG2; experiment: relative viability EC50 (midpoint between 100% and the lowest measured viability); higher = less toxic

| Compound | cell viability ([1]; 1 nM) [%] | cell viability ([1]; 10 nM) [%] | cell viability ([1]; 100 nM) [%] | cell viability ([1]; 1000 nM) [%] | cell viability ([1]; 10000 nM) [%] | cell viability ([2]; 1 nM) [%] | cell viability ([2]; 10 nM) [%] | cell viability ([2]; 100 nM) [%] | cell viability ([2]; 1000 nM) [%] | cell viability ([2]; 10000 nM) [%] | cell viability ([3]; 1 nM) [%] | cell viability ([3]; 10 nM) [%] | cell viability ([3]; 100 nM) [%] | cell viability ([3]; 1000 nM) [%] | cell viability ([3]; 10000 nM) [%] | cell viability ([4]; 1 nM) [%] | cell viability ([4]; 10 nM) [%] | cell viability ([4]; 100 nM) [%] | cell viability ([4]; 1000 nM) [%] | cell viability ([4]; 10000 nM) [%] | drug sensitivity score [5] | drug sensitivity score [6] | drug sensitivity score [7] | drug sensitivity score [8] | relative viability EC50 [9] [µM] | relative viability EC50 [10] [µM] | relative viability EC50 [11] [µM] | relative viability EC50 [12] [µM] | cell viability ([13]; 1 nM) [%] | cell viability ([13]; 10 nM) [%] | cell viability ([13]; 100 nM) [%] | cell viability ([13]; 1000 nM) [%] | cell viability ([13]; 10000 nM) [%] | drug sensitivity score [14] | relative viability EC50 [15] [µM] |
| --- | --- | --- | --- | --- | --- | --- | --- | --- | --- | --- | --- | --- | --- | --- | --- | --- | --- | --- | --- | --- | --- | --- | --- | --- | --- | --- | --- | --- | --- | --- | --- | --- | --- | --- | --- |
| C[C@]12C[C@H](O)[C@H]3[C@@H](CCC4=CC(=O)CC[C@@]43C)[C@@H]1CC[C@@H]2C(=O)CO [corticosterone] | 92.8 | 114 | 114 | 101 | 91.5 | 101 | 101 | 96.4 | 97.2 | 93.7 | 96.1 | 91.6 | 101 | 90.6 | 87.8 | 94.9 | 100 | 92.3 | 96.1 | 97.9 | 0 | 0 | 0 | 0 | > 10 | > 10 | > 10 | > 10 | – | – | – | – | – | – | – |
| NCCS [cysteamine] | 102 | 108 | 104 | 100 | 93.8 | 87.7 | 100 | 98.3 | 99.1 | 102 | 106 | 101 | 99.8 | 94.8 | 99.9 | 102 | 102 | 95.1 | 99.7 | 97.4 | 0 | 0 | 0 | 0 | > 10 | > 10 | > 10 | > 10 | – | – | – | – | – | – | – |
| CN(C)NC(=O)CCC(=O)O [daminozide] | 93.5 | 96.3 | 96.5 | 98.3 | 100 | – | – | – | – | – | 94.6 | 98.2 | 97.1 | 98.3 | 103 | 97.8 | 97.8 | 95 | 101 | 101 | 0 | – | 0 | 0 | > 10 | – | > 10 | > 10 | 103 | 96.4 | 102 | 102 | 103 | 0 | > 10 |
| CC[C@@](C)(Nc1ccnc(-c2c[nH]c3ncccc23)n1)C(=O)NCC(F)(F)F [decernotinib] | 97.4 | 97.3 | 99 | 95.4 | 109 | – | – | – | – | – | 100 | 100 | 105 | 99.1 | 107 | 96.5 | 101 | 94.2 | 98.3 | 98 | 0 | – | 0 | 0 | > 10 | – | > 10 | > 10 | 94.2 | 101 | 96.6 | 107 | 109 | 0 | > 10 |
| O=C(O)c1ccc(-n2nc(-c3ccccc3O)nc2-c2ccccc2O)cc1 [deferasirox] | 110 | 92.5 | 104 | 96 | 58.8 | 99.7 | 100 | 97.4 | 104 | 72.2 | 104 | 104 | 106 | 101 | 56.9 | 103 | 102 | 99 | 93.5 | 47.1 | 2.7 | 0.9 | 2.1 | 3.9 | – | – | – | 2.16 | 110 | 93.2 | 106 | 91.6 | 31.3 | 5.2 | 2.17 |
| Nc1ncnc2c1ncn2[C@H]1CC[C@@H](CO)O1 [dideoxyadenosine] | 98.6 | 95.3 | 94.6 | 94.6 | 104 | 98.8 | 95.4 | 89.1 | 107 | 108 | 101 | 98 | 99.3 | 106 | 102 | 96.3 | 100 | 93.7 | 99.3 | 102 | 0 | 0 | 0 | 0 | > 10 | > 10 | > 10 | > 10 | – | – | – | – | – | – | – |
| Clc1ccc(C(Cn2ccnc2)OCc2ccc(Sc3ccccc3)cc2)c(Cl)c1 (stereo not given) [fenticonazole] | 102 | 94.8 | 95 | 91.3 | 73.3 | 100 | 88.6 | 97 | 101 | 85.7 | 109 | 108 | 106 | 107 | 97.8 | 101 | 97.8 | 100 | 99.1 | 96 | 1.7 | 0.1 | 0 | 0 | – | > 10 | > 10 | > 10 | 116 | 108 | 114 | 110 | 68.5 | 1 | – |
| CC(C)n1c(/C=C/[C@@H](O)C[C@@H](O)CC(=O)O)c(-c2ccc(F)cc2)c2ccccc21 [fluvastatin] | 92.4 | 103 | 101 | 89.1 | 80 | 99 | 96.7 | 96.6 | 105 | 65.4 | 100 | 100 | 103 | 91.2 | 37.5 | 99.6 | 109 | 95.7 | 101 | 45.1 | 1.7 | 1.3 | 4.9 | 2.9 | > 10 | – | 2.05 | 3.24 | 97 | 104 | 99.2 | 90.7 | 71.3 | 2.5 | – |
| COc1c2occc2c(OC)c2c(=O)cc(C)oc12 [khellin] | 97.1 | 110 | 94.9 | 107 | 102 | – | – | – | – | – | 105 | 99.8 | 94.2 | 99.7 | 98.5 | 103 | 98.6 | 99.5 | 98.8 | 96.3 | 0 | – | 0 | 0 | > 10 | – | > 10 | > 10 | 96.2 | 99.2 | 96.6 | 89 | 90.1 | 0.3 | > 10 |
| COc1cc2nccc(Oc3ccc(NC(=O)NC4CC4)c(Cl)c3)c2cc1C(N)=O [lenvatinib] | 106 | 95.5 | 94.7 | 91.2 | 75.6 | 115 | 98.1 | 89.6 | 94.7 | 68.3 | 102 | 106 | 106 | 99.1 | 99.6 | 105 | 101 | 101 | 90.8 | 76.3 | 1.4 | 2.3 | 0 | 2 | > 10 | – | > 10 | > 10 | 110 | 108 | 105 | 110 | 95.4 | 0 | > 10 |
| FC(F)(F)c1ccc(/C=C/c2nc(COc3ccc(CCCCn4ccnn4)cc3)co2)cc1 [mubritinib] | 97.5 | 109 | 92.5 | 81.6 | 84.9 | – | – | – | – | – | 103 | 103 | 100 | 103 | 88.4 | 100 | 103 | 93.7 | 93.7 | 97.2 | 3.1 | – | 0 | 0 | > 10 | – | > 10 | > 10 | 106 | 104 | 78.3 | 56 | 28.1 | 10.8 | 0.429 |
| Cc1nc2ccccn2c(=O)c1CCN1CCC(C(=O)c2ccc(F)cc2)CC1 [pirenperone] | 103 | 101 | 99.5 | 90.6 | 106 | – | – | – | – | – | 92.6 | 101 | 95.6 | 100 | 97.2 | 106 | 106 | 103 | 99.2 | 103 | 0 | – | 0 | 0 | > 10 | – | > 10 | > 10 | 110 | 113 | 108 | 99.2 | 90.2 | 0 | > 10 |
| CN(C)C(=O)c1cc2cnc(Nc3ccc(N4CCNCC4)cn3)nc2n1C1CCCC1 [ribociclib] | 92.1 | 95.9 | 96.1 | 95 | 90.3 | 99.7 | 90.3 | 94 | 95.3 | 73.1 | 95.5 | 98.8 | 98 | 94.4 | 84 | 92.8 | 96.9 | 92.7 | 98.4 | 90.4 | 0 | 1.8 | 0.6 | 0 | > 10 | – | > 10 | > 10 | 95.1 | 101 | 87.5 | 78 | 71.8 | 4.5 | – |
| C=C[C@](C)(O)CC[C@@H]1[C@@]2(C)CCCC(C)(C)[C@@H]2CC[C@@]1(C)O [sclareol] | 101 | 98.8 | 99.7 | 102 | 87.6 | 101 | 98.7 | 98.7 | 104 | 94.4 | 101 | 100 | 102 | 99.6 | 104 | 107 | 96.6 | 96.4 | 98.8 | 94.6 | 0 | 0 | 0 | 0 | > 10 | > 10 | > 10 | > 10 | – | – | – | – | – | – | – |
| Cc1cn([C@@H]2C[C@@H](O)[C@H](CO)O2)c(=O)[nH]c1=O [telbivudine] | 92.6 | 108 | 99.8 | 106 | 116 | 118 | 92.2 | 105 | 107 | 114 | 98.8 | 97.6 | 92.3 | 85 | 99.3 | 97.8 | 103 | 96.8 | 99.1 | 105 | 0 | 0 | 0 | 0 | > 10 | > 10 | > 10 | > 10 | – | – | – | – | – | – | – |

Source: the supplement of paper PMC13380429
